Experimental data as given in patent US20230159583A1, “COMPOUND FOR TREATING GOUT, PREPARATION METHOD THEREFOR, AND USE THEREOF” (Huazhong Pharmaceutical Co., Ltd., priority 2020, published 2023).
Where two headings read alike, the source gives them in different places.

How the values were obtained:
Type in all cases: in vivo
[1] = system: carrageenan-induced mouse paw swelling; test: carrageenan-induced mouse paw swelling model; conditions: for Circumference of the paw after administration: 180 min after onset of inflammation (0.5% carrageenan); for inhibition in vivo at 0.26 mg/kg / inhibition in vivo at 13 mg/kg / inhibition in vivo at 130 mg/kg / change in vivo at 130 mg/kg: Mus musculus, po, 3 h; for inhibition in vivo at 0.26 mg/kg: dosage 0.26 mg/kg; for inhibition in vivo at 0.26 mg/kg / inhibition in vivo at 13 mg/kg / inhibition in vivo at 130 mg/kg: read-out: Swelling inhibition rate; for inhibition in vivo at 13 mg/kg: dosage 13 mg/kg; for change in vivo at 130 mg/kg: read-out: Swelling degree
Procedure: The anti-inflammatory effects of the compounds prepared in the above Examples were detected using a carrageenan-induced mouse paw swelling model, and the control sample was methylprednisolone:
Carrageenan-induced mouse paw swelling model is a classical acute inflammation model commonly used for evaluating or screening anti-inflammatory effects of drugs. When carrageenan is injected into the paw of mice, a series of reactions similar to human acute inflammation such as local capillary dilatation, increased vascular permeability, exudation and edema can be caused, so the model can be widely used in the evaluation of new drugs.
Reference for experimental method: Yang Huan, Cheng Xiao, Wang Yuehua, Du Guanhua. Effects of esculin on the swelling of toes and inflammation induced by carrageenan in mice [J]. Chinese Journal of New Drugs, 2016(25):2322.
On the day of the experiment, the circumference of right hind paw (cm) of each mouse was measured firstly, and then, after the onset of inflammation, the circumference of right hind paw was measured so that the difference of the circumferences of the paws before and after inflammation was swelling degree, and the swelling inhibition rate of paw (swelling inhibition rate %=(C−T)/C*100%); C=swelling rate of the control group %, and T=swelling rate of the treatment group) was calculated.
(2) Gavage administration was performed once a day for seven consecutive days. The circumference of the right hind paw was marked and measured before the last administration, and the average value of the two measurements was taken as the standard. 30 min after the last administration, 20 μL/mice of 0.5% carrageenan was injected into the right hind ankle of the mice to induce inflammation, and the circumference of paw was measured 180 min after the onset of inflammation. […]

[2] = system: rat paw swelling induced by monosodium urate (MSU); test: rat paw swelling model induced by monosodium urate (MSU); conditions: for inhibition in vivo at 90 mg/kg / inhibition in vivo at 0.36 mg/kg / inhibition in vivo at 1.8 mg/kg / inhibition in vivo at 9 mg/kg / change in vivo at 90 mg/kg: Rattus norvegicus, po; for inhibition in vivo at 90 mg/kg / inhibition in vivo at 0.36 mg/kg / inhibition in vivo at 1.8 mg/kg / inhibition in vivo at 9 mg/kg: 1 h, read-out: Swelling inhibition rate; for inhibition in vivo at 0.36 mg/kg: dosage 0.36 mg/kg; for inhibition in vivo at 1.8 mg/kg: dosage 1.8 mg/kg; for inhibition in vivo at 9 mg/kg: dosage 9 mg/kg; for change in vivo at 90 mg/kg: read-out: Swelling degree; for Mean volume of paw after administration: 1 h after onset of inflammation (50 μL 2% MSU)
From the text: Gout is a disease unique to human, and gouty arthritis is an inflammatory reaction caused by the deposition of monosodium urate (MSU) in local joint tissues. Since purine metabolism pathways in some mammals such as mice and rabbits are different from those in humans, it is impossible to construct a gouty arthritis model by the method of interfering with purine metabolism disorders, so the most direct method for causing gouty arthritis is to directly inject MSU into the joint cavity of the model animal. The model is only used for simulating local joint inflammation of gout, is suitable for observation of local arthritis symptoms, is a common method for screening anti-inflammatory effects of gout drugs at present, and has the advantages of stability, easy operation and the like. (Reference: Li Na, Hua Long, and Yuan Hui. Research progress of gout animal models [J]. Medical theory and practice, 2016(24).
The anti-gout effect of the compound prepared in the above Example was detected by using a rat paw swelling model induced by monosodium urate (MSU), and the control sample was methylprednisolone.
Experimental method: MSU was used as an inflammatory agent, injected subcutaneously into the hind paws of rats to cause paw swelling, and then the volume of the paws was measured, and the swelling rates and swelling inhibition rates of the treatment group and the control group were compared. On the day of the experiment, the volume of right hind paw (ml) of each rat was measured firstly, and then after the onset of inflammation, the volume of right hind paw was measured so that the difference of volume of paw before and after inflammation was swelling degree, and the swelling inhibition rate of paw (swelling inhibition rate %=(C−T)/C*100%); C=swelling rate of the control group %, and T=swelling rate of the treatment group) was calculated. This method is one of the commonly used methods for screening anti-inflammatory effects of gout drugs, and the model is stable and easy to operate.
(2) One week before the subcutaneous injection of MSU into the feet and soles of the rats, the rats were given different doses of the test drugs, and the drugs were given by gavage once a day, for seven consecutive days. The circumference of the right hind paw was marked and measured before the last administration, and the average value of the two measurements was taken as the standard. 1 h after the last administration, animals in other groups were given 50 μL of 2% MSU in addition to the blank control group, and the paw circumference was measured 1 h after the onset of inflammation. […]

ICR mice = conditions: p.o.
Procedure: The experiment was designed according to the “Technical Guideline for Acute Toxicity Test of Chemical Drugs” issued by the State Food and Drug Administration in March 2005. The doses administered were 4 g/kg, 4.91 g/kg, 6.14 g/kg, 7.68 g/kg, 9.6 g/kg, 12 g/kg, and 15 g/kg (the dose could be adjusted according to the actual test results), 12 ICR mice per dose group. If the administration volume is greater than 0.5 ml, it is better to perform the drug administration in two or more times (Note: according to the national standard GB 15193.3-2014, if multiple drug administrations are required, the time interval should be 4 h to 6 h each time, and the patient should be fasted on the day before drug administration).

[3] = ICR mice, 130 mg/kg by gavage once a day for seven days, 180 min after onset of inflammation
[4] = ICR mice, 130 mg/kg by gavage once a day for seven days
[5] = mouse, carrageenan-induced paw swelling
[6] = mouse, carrageenan-induced paw swelling, dosage 130 mg/kg
[7] = SD rats, 90 mg/kg by gavage once a day for seven days, 1 h after onset of inflammation
[8] = rat, MSU-induced paw swelling, dosage 90 mg/kg
[9] = SD rats, 90 mg/kg by gavage once a day for seven days

Compound	Swelling value [1, 3]	Circumference of the paw after administration [1, 4]	inhibition in vivo at 0.26 mg/kg [1, 5]	inhibition in vivo at 13 mg/kg [1, 5]	inhibition in vivo at 130 mg/kg [1, 6]	change in vivo at 130 mg/kg [1, 3]	inhibition in vivo at 130 mg/kg [1, 3]	inhibition in vivo at 90 mg/kg [2, 7]	inhibition in vivo at 0.36 mg/kg ([2]; rat, MSU-induced paw swelling)	inhibition in vivo at 1.8 mg/kg ([2]; rat, MSU-induced paw swelling)	inhibition in vivo at 9 mg/kg ([2]; rat, MSU-induced paw swelling)	inhibition in vivo at 90 mg/kg [2, 8]	change in vivo at 90 mg/kg [2, 7]	Swelling value [2, 7]	Mean volume of paw after administration [2, 9]	Mortality (ICR mice; 4 g/kg)	Mortality (ICR mice; 4.91 g/kg)	Mortality (ICR mice; 6.14 g/kg)	Mortality (ICR mice; 7.68 g/kg)	Mortality (ICR mice; 9.6 g/kg)	further results
C[C@]12C=CC(=NO)C=C1CC[C@@H]1[C@@H]2[C@@H](O)C[C@@]2(C)[C@H]1CC[C@]2(O)/C(CO)=N/O [Example 3, (8S,9S,10R,11S,13S,14S,17R)-11,17-dihydroxy-17-((E)-2-hydroxy (hydroxyimino)ethyl)-10,13-dimethyl-6,7,8,9,10,11,12,13,14,15,16,17-dodecahydro-3H-cyclopentane[α]phenanthrene-3-one oxime]	0.05 cm	1.53 cm	9.12%	42.3%	78.2%	3.38%	82.5%	80.5%	10.2%	25.2%	32.1%	82.1%	64.2%	0.77 mL	1.97 mL	0/12	0/12	0/12	0/12	0/12	Mortality (ICR mice; 12 g/kg): 0/12; Mortality (ICR mice; 15 g/kg): 1/12
CC(=O)OC/C(=N\O)[C@@]1(O)CC[C@H]2[C@@H]3CCC4=CC(=NO)CC[C@]4(C)[C@H]3[C@@H](O)C[C@@]21C [Example 5, (2E)-2-((8S,9S,10R,11S,13S,14S,17R)-11,17-dihydroxy-3-(hydroxyimino)-10,13-dimethyl-2,3,6,7,8,9,10,11,12,13,14,15,16,17-tetrahydro-1H-cyclopentane[α]phenanthroyl)-2-(hydroxyimino)ethyl acetate]	0.04 cm	1.52 cm	13.5%	56.8%	88.1%	2.7%	86%	82.1%	23.4%	35.3%	56.3%	80.1%	59%	0.72 mL	1.94 mL	0/12	0/12	0/12	0/12	1/12	Mortality (ICR mice; 12 g/kg): 2/12; Mortality (ICR mice; 15 g/kg): 4/12
CC1(C)O[C@@H]2C[C@H]3[C@@H]4C[C@H](F)C5=CC(=NO)C=C[C@]5(C)[C@@]4(F)[C@@H](O)C[C@]3(C)[C@]2(/C(CO)=N/O)O1 [Example 8, (2S,6aS,6bR,7S,8aS,8bR,11aR,12aS,12bS)-2,6b-difluoro-7-hydroxy-8b-((E)-2-hydroxy-1-(hydroxyimino)ethyl)-6a,8a,10,10-tetramethyl-1,2,6a,6b,7,8,8a,8b,11a,12,12a,12b-dodecahydro-4H-naphtho[2′,1′:4,5]indeno[1,2-d][1,3]dioxol-4-one oxime]	0.02 cm	1.49 cm	24.5%	46.8%	93.2%	1.36%	93%	91.8%	17.2%	32.1%	41.2%	93.5%	26.8%	0.33 mL	1.56 mL	0/12	0/12	0/12	0/12	0/12	Mortality (ICR mice; 12 g/kg): 0/12; Mortality (ICR mice; 15 g/kg): 1/12
C[C@@H]1C[C@H]2[C@@H]3CCC4=CC(=NO)C=C[C@]4(C)[C@H]3[C@@H](O)C[C@]2(C)[C@H]1/C(CO)=N/O [Example 10]	0.11 cm	1.58 cm	8.12%	30.9%	62.4%	7.48%	61.3%	68.9%	9.21%	32.1%	51.2%	65.2%	102%	1.24 mL	2.45 mL	0/12	0/12	1/12	1/12	3/12	Mortality (ICR mice; 12 g/kg): 4/12; Mortality (ICR mice; 15 g/kg): 5/12
